The values that follow are results of earlier work, collected in patent US9072693B2 (priority 2005, dated 2015).

Data set [1] relates to psoriatic plaques. The conditions noted are these: topical (Lu et al. 1996).
Data set [2] has as its system women with PMS.
Data set [3] has as its system women with PMS. The conditions noted are these: higher doses once or twice during the luteal phase (Miner 2002).

Each structure is given as a SMILES string.

With `C=C1/C(=C\C=C2/CCC[C@]3(C)[C@@H]([C@H](C)CCCC(C)(C)O)CC[C@@H]23)C[C@@H](O)C[C@@H]1O` [Calcitriol], the “effect in psoriatic plaques” value in data set [1] was “decrease keratinocyte proliferation, normalize keratinocyte differentiation and decrease immune activation in plaques”.

For `O=C([O-])[O-].[Ca+2]` [calcium, calcium carbonate], in data set [2] (a number of studies, all 4 major categories of PMS), the “reduction of overall PMS symptoms” value is reported as 50%. The “overall reduction in total symptom scores compared to placebo” value in data set [2] (elemental calcium 1200 mg per day as calcium carbonate, within 3 months of therapy, premenopausal women 18-45 years) is on record as 48%.

In the case of `C=C1CC[C@H](O)C/C1=C/C=C1\CCC[C@]2(C)[C@@H]([C@H](C)CCCC(C)C)CC[C@@H]12` [cholecalciferol], the safety result (10,000 IU daily for 5 months (Heaney)) is recorded as “safe”. For the same compound, for the setting “oral ingestion, daily (Vieth R)”, the “daily dose at which toxicity occurs” value was 40,000 IU.

On to `CNCCC(Oc1ccc(C(F)(F)F)cc1)c1ccccc1` (stereo not drawn) [fluoxetine], for which, in data set [3], the “effect on PMS symptomatology” value is “effective in reducing symptomatology”.
